Measurements published in patent publication US9266904B2, “6-bridged heteroaryldihydropyrimidines for the treatment and prophylaxis of hepatitis B virus infection” (priority 2013, dated 2016).
Converted amounts (≈) assume the structure as drawn.

Key:
[1] = Lyophilisation solubility assay (Lysa); format: physicochemical; settings: pH 6.5, aqueous buffer, thermodynamic from solid
Summary of the method: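 DMSO was evaporated from 10 mM stocks, and residues were taken up in 0.05 M phosphate buffer pH 6.5, stirred 1 h, shaken 2 h and left overnight. Filtrates were quantified by UV or HPLC-UV against a four-point calibration, in duplicate. Values are in μg/ml, with a lower-bound value when >80% dissolved.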

[2] = test system: HepDE19 cells; assay: Cytotoxicity (CCK-8 cell viability) and selectivity index; format: cell-based, human; settings: CC50 value/EC50 value
Excerpt: (§1) HepG2.2.15 and HepDE19 are stably-transfected cell lines containing the HBV genome. Both cell lines are derived from the hepatoblastoma cell line Hep G2 (American Type Culture Collection, ATCC® HB-8065™) by the published procedures described in references: M A Selles et al. Proc. Natl. Acad. Sci. USA 1987, 84, 1005-1009 and H Guo et al. Journal of Virology 2007, 81, 12472-12484, respectively. Both cell lines were maintained in Dulbecco's modified Eagle's medium (DMEM)-F12 medium supplemented with 10% fetal bovine serum, 100 U/mL penicillin, 100 μg/mL streptomycin, and 0.5 mg/mL of G418.
(§2) In a cell culture model, apparent antiviral activity of a compound can be the result of host cell death after exposure to the compound. To determine whether the anti-HBV effect of a test compound is due to cytotoxicity, HepDE19 cells were seeded into 96-well plates (5×10^3 cells per well) and treated with compounds as described above for EC50 determination. Five days after treatment, cell viability was measured by addition of 20 μL of CCK-8 reagent. Two hours after incubation at 37° C., the absorbance at wavelengths of 450 nm and 630 nm (OD450 and OD630) was recorded by a plate reader. The concentration results in the death of 50% of the host cells (CC50) of each compound was determined (See Table 5).

[3] = as above; format: cell-based, human; settings: human, HepDE19 cells; cytotoxicity, concentration resulting in death of 50% of host cells
Excerpt: as §1, §2

[4] = test system: HBV replication in HepG2.2.15 cells; assay: Anti-HBV activity in vitro in HepG2.2.15 cells (extracellular HBV DNA by qPCR); format: cell-based; settings: Hepatitis B virus, HepG2.2.15, Anti-HBV activity in HepG2.2.15 cells; read-out: EC50
Summary of the method: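 Constitutively HBV-producing HepG2.2.15 cells were seeded overnight at 37 °C, then treated with half-log serial dilutions of compound (0.5% DMSO final) for five days. Supernatant HBV DNA was extracted and quantified by qPCR; EC50 is the concentration inhibiting HBV replication by 50%.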

[5] = Human microsomal clearance assay; format: in vitro ADME; settings: human, 1 μM, pH 7.4
Summary of the method: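 Liver microsomes (0.5 mg/mL protein) were incubated with 1 μM compound at 37 °C, pH 7.4 phosphate, with an NADPH-regenerating system. Samples at 0-30 min were quenched and measured by LC-MS/MS for parent loss. No-NADPH controls were included.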

| Structure (SMILES) | solubility thermodynamic [1] [µg/mL] | Selectivity index (CC50/EC50) [2] | CC50 at 5 days [3] [nM] | EC50 [4] [nM] | CLh [5] [mL/min/kg] |
| --- | --- | --- | --- | --- | --- |
| COC(=O)C1=C(CN2C3COCC2CC(O)(CO)C3)NC(c2nccs2)=N[C@H]1c1ccc(F)cc1Cl (stereo partly drawn) [Example 10, (R)-4-(2-Chloro-4-fluoro-phenyl)-6-(7-hydroxy-7-hydroxymethyl-3-oxa-9-aza-bicyclo[3.3.1]non-9-ylmethyl)-2-thiazol-2-yl-1,4-dihydro-pyrimidine-5-carboxylic acid methyl ester] | 435 (≈ 810 µM) | >11364 | > 100000 | 8.8 | – |
| COC(=O)C1=C(CN2C3COCC2CN(S(C)(=O)=O)C3)NC(c2nccs2)=N[C@H]1c1ccc(F)cc1Cl [Example 11, (R)-4-(2-Chloro-4-fluoro-phenyl)-6-(7-methanesulfonyl-3-oxa-7,9-diaza-bicyclo[3.3.1]non-9-ylmethyl)-2-thiazol-2-yl-1,4-dihydro-pyrimidine-5-carboxylic acid methyl ester] | – | >15152 | > 100000 | 6.6 | 9.0 |
| COC(=O)C1=C(CN2C3COCC2c2c(n(C)[nH]c2=O)C3)NC(c2nccs2)=N[C@H]1c1ccc(F)cc1Cl (stereo partly drawn) [Example 33, (R)-4-(2-Chloro-4-fluoro-phenyl)-6-(5-methyl-3-oxo-10-oxa-4,5,12-triaza-tricyclo[6.3.1.0*2,6*]dodec-2(6)-en-12-ylmethyl)-2-thiazol-2-yl-1,4-dihydro-pyrimidine-5-carboxylic acid methyl ester] | 100 (≈ 179 µM) | >9091 | > 100000 | 11 | – |
| COC(=O)C1=C(CN2C3COCC2CC(NS(C)(=O)=O)C3)NC(c2nccs2)=N[C@H]1c1ccc(F)cc1Cl (stereo partly drawn) [Example 36, (R)-4-(2-Chloro-4-fluoro-phenyl)-6-(7-methanesulfonylamino-3-oxa-9-aza-bicyclo[3.3.1]non-9-ylmethyl)-2-thiazol-2-yl-1,4-dihydro-pyrimidine-5-carboxylic acid methyl ester] | – | 11875 | 38000 | 3 | 7.8 |
| COC(=O)C1=C(CN2C3COCC2CN(S(N)(=O)=O)C3)NC(c2nccs2)=N[C@H]1c1ccc(F)cc1Cl [Example 19, (R)-4-(2-Chloro-4-fluoro-phenyl)-6-(7-sulfamoyl-3-oxa-7,9-diaza-bicyclo[3.3.1]non-9-ylmethyl)-2-thiazol-2-yl-1,4-dihydro-pyrimidine-5-carboxylic acid methyl ester] | – | 16571 | 58000 | 4 | 4.6 |
| COC(=O)C1=C(CN2[C@@H]3COC[C@H]2C[C@H](NS(N)(=O)=O)C3)NC(c2nccs2)=N[C@H]1c1ccc(F)cc1Cl [Example 63, Methyl (4R)-4-(2-chloro-4-fluoro-phenyl)-6-[[(1R,5S)-7-exo-(sulfamoylamino)-3-oxa-9-azabicyclo[3.3.1]nonan-9-yl]methyl]-2-thiazol-2-yl-1,4-dihydropyrimidine-5-carboxylate] | – | 22367 | 34000 | 1.5 | 4.1 |
| COC(=O)C1=C(CN2[C@@H]3COC[C@H]2C[C@H](NS(C)(=O)=O)C3)NC(c2nccs2)=N[C@H]1c1ccc(F)cc1Cl [Example 60, Methyl (4R)-4-(2-chloro-4-fluoro-phenyl)-6-[[(1R,5S)-7-exo-(methanesulfonamido)-3-oxa-9-azabicyclo[3.3.1]nonan-9-yl]methyl]-2-thiazol-2-yl-1,4-dihydropyrimidine-5-carboxylate] | – | 21169 | 34000 | 1.6 | 6.4 |
| COC(=O)C1=C(CN2[C@@H]3COC[C@H]2C[C@H](NC(N)=O)C3)NC(c2nccs2)=N[C@H]1c1ccc(F)cc1Cl [Example 62, Methyl (4R)-4-(2-chloro-4-fluoro-phenyl)-2-thiazol-2-yl-6-[[(1S,5R)-7-exo-ureido-3-oxa-9-azabicyclo[3.3.1]nonan-9-yl]methyl]-1,4-dihydropyrimidine-5-carboxylate] | – | 6571 | 46000 | 7 | 4.6 |
| CCOC(=O)C1=C(CN2C3COCC2C(F)(F)[C@H](CC(=O)O)C3)NC(c2nccs2)=N[C@H]1c1ccc(F)c(F)c1C (stereo partly drawn) [Example 128, 2-[(7S)-9-[[(4S)-4-(3,4-difluoro-2-methyl-phenyl)-5-ethoxycarbonyl-2-thiazol-2-yl-1,4-dihydropyrimidin-6-yl]methyl]-6,6-difluoro-3-oxa-9-azabicyclo[3.3.1]nonan-7-yl]acetic acid] | – | 14056 | 35000 | 2.5 | 3.8 |
| COC(=O)C1=C(CN2[C@@H]3COC[C@H]2C[C@H](NC(C)=O)C3)NC(c2nccs2)=N[C@H]1c1ccc(F)cc1Cl [Example 61, Methyl (4R)-6-[[(1S,5R)-7-exo-acetamido-3-oxa-9-azabicyclo[3.3.1]nonan-9-yl]methyl]-4-(2-chloro-4-fluoro-phenyl)-2-thiazol-2-yl-1,4-dihydropyrimidine-5-carboxylate] | – | 10942 | 53000 | 4.8 | 6.3 |
| COC(=O)C1=C(CN2[C@@H]3C[C@@H](CC(=O)O)C[C@H]2C(F)(F)C3)NC(c2nccs2)=N[C@H]1c1ccc(F)c(F)c1C [Example 111, 2-[(1R,3R,5S)-8-[[(4S)-4-(3,4-difluoro-2-methyl-phenyl)-5-methoxycarbonyl-2-thiazol-2-yl-1,4-dihydropyrimidin-6-yl]methyl]-6,6-difluoro-8-azabicyclo[3.2.1]octan-3-yl]acetic acid] | – | 65983 | 79000 | 1.2 | 4.8 |
| COC(=O)C1=C(CN2C3COCC2CN(C(=O)OC)C3)NC(c2nccs2)=N[C@H]1c1ccc(F)cc1Cl [Example 17, 9-[(R)-6-(2-Chloro-4-fluoro-phenyl)-5-methoxycarbonyl-2-thiazol-2-yl-3,6-dihydro-pyrimidin-4-ylmethyl]-3-oxa-7,9-diaza-bicyclo[3.3.1]nonane-7-carboxylic acid methyl ester] | – | 11628 | 50000 | 4 | – |
| COC(=O)C1=C(CN2C3COCC2C(F)(F)C3)NC(c2nccs2)=N[C@H]1c1ccc(F)cc1Cl (stereo partly drawn) [Example 108, Methyl (4R)-4-(2-chloro-4-fluorophenyl)-6-[(6,6-difluoro-3-oxa-8-azabicyclo[3.2.1]octan-8-yl)methyl]-2-(1,3-thiazol-2-yl)-1,4-dihydropyrimidine-5-carboxylate] | – | 9953 | 74000 | 7.4 | – |
| COC(=O)CC1CC2COCC(C1)N2CC1=C(C(=O)OC)[C@H](c2ccc(F)cc2Cl)N=C(c2nccs2)N1 (stereo partly drawn) [Example 25, (R)-4-(2-Chloro-4-fluoro-phenyl)-6-(7-methoxycarbonylmethyl-3-oxa-9-aza-bicyclo[3.3.1]non-9-ylmethyl)-2-thiazol-2-yl-1,4-dihydro-pyrimidine-5-carboxylic acid methyl ester] | – | >6897 | > 100000 | 14.5 | – |
| CCOC(=O)CC1(NS(C)(=O)=O)CC2COCC(C1)N2CC1=C(C(=O)OC)[C@H](c2ccc(F)cc2Cl)N=C(c2nccs2)N1 (stereo partly drawn) [Example 146, Methyl (4R)-4-(2-chloro-4-fluoro-phenyl)-6-[[7-(2-ethoxy-2-oxo-ethyl)-7-(methanesulfonamido)-3-oxa-9-azabicyclo[3.3.1]nonan-9-yl]methyl]-2-thiazol-2-yl-1,4-dihydropyrimidine-5-carboxylate] | – | >200000 | > 100000 | 0.5 | – |
